In patent US12391696B2, “Pyrrolopyrazole derivatives, preparation method thereof and application thereof in medicine” (SHANGHAI MEDICILON INC., priority 2019, dated 2025):

target: H+/K+ ATPase (Oryctolagus cuniculus (Rabbit), UniProt P27112); experiment: Determination of compounds' inhibition of H+/K+ ATPase enzyme activity; type: biochemical; conditions: H+/K+ ATPase extracted from rabbit stomach; malachite green detection, 500 μM ATP, pH 6.5
Excerpt: Determination of Compounds' Inhibition of H^+/K^+ ATPase Enzyme Activity
The following experiment is used to determine the inhibitory effect of the compound of the present invention on the H+/K+ATPase enzyme activity.
• Plate reader: SpectraMax M5(MD) • Malachite Green (Sigma Aldrich, 213020-25G) • Ammonium molybdate (Sigma Aldrich, 277908-20G) • ATP (Sigma Aldrich, A1852-1VL). 2. Buffer Preparation
Enzyme working solution: titrating the enzyme, diluting the enzyme with buffer 1, and during the reaction, taking 5 μl of the diluted solution into 50 μl reaction system.
ATP solution: 100 mM ATP was diluted to 5 mM with no K+buffer, and 5 μl of the diluted solution was added to the 50 μl reaction system, that is, the final concentration of ATP was 500 μM.
MLG color development liquid: 0.12% MLG, 7.5% ammonium molybdate, 11% Tween-20 was mixed as 100:25:2, and adding 15 μl of the mixture into each well during detection.
Buffer 1: 50 mM Tris-HCl pH 6.5, 5 mM magnesium chloride (magnesium chloride), 10 μM valinomycin (valinomycin).
Buffer 2: 50 mM Tris-HCl pH 6.5, 5 mM magnesium chloride (magnesium chloride), 10 μM valinomycin (valinomycin), 20 mM KCl.
Homogenization buffer: 10 mmol/L Tris-HCl, pH 6.8, 0.25M sucrose (sucrose), 1 mmol/LEDTA
7.5% Ficoll layering solution: homogenization buffer+7.5% (W/W) (Ficoll 400).
3.1. H^+/K^+ ATPase Enzyme Extraction
(1) The stomach tissue of the rabbit was separated, and the blood was washed with tap water, food residue.
(2) The fundus portion was thoroughly washed with pre-cooled NaCl solution to remove surface mucus.
(3) The stripped mucosa was filled into a sample bag or a 50 ml centrifuge tube, and quickly freezing in a liquid nitrogen tank.
(4) The tissue was removed, minced with surgical scissors, and a pre-cooled homogenization buffer (4 ml/g tissue) was added and homogenized in a tissue homogenizer for 2 to 10 minutes.
(5) After homogenization, if there were larger tissue particles, they could be removed by centrifugation (600 g, 10 min), and then the supernatant was transferred to a clean centrifuge tube. After centrifugation at 20000 g for 30 minutes, then the supernatant was transferred to a clean centrifuge tube at 100000 g for 90 minutes and the precipitate was collected.
(6) Resuspending the precipitate with homogenization buffer, blowing uniformly, adding 7.5% Ficoll layering solution at equal ratio, centrifuging at 100000 g for 90 minutes, and collecting the precipitate.
(7) Resuspending the precipitate with homogenization buffer, blowing uniformly, and the protein concentration was measured by Bradford. Freezing in tubes at −80° C. for later use.
3.2. H^+/K^+ ATPase Activity Experiment
(1) Adding 35 μl of reaction buffer to each experimental well, and then added 35 μl of buffer 1.
(2) Adding 5 μl buffer 1 containing 10% DMSO to the whole enzyme and buffer well.
(3) Adding 5 μl of 10× compound working solution to the compound well and mixing well.
(4) Adding 5 μl of buffer 1 to the buffer well.
(5) Adding 5 μl of 10× enzyme working solution to the remaining wells, mixing and incubating at 37° C. for 30 minutes
(6) Adding 5 μl of 10× ATP working solution to all experimental wells, and incubating at 37° C. for 20 min.
(7) Adding 15 μl MLG chromogenic solution to all experimental wells, and uniformly mixing and incubating at room temperature for 5-30 min.
(8) The reading number of 620 nm was detected by an M5 instrument. […]

Chain of H+/K+ ATPase (P27112 whole entry): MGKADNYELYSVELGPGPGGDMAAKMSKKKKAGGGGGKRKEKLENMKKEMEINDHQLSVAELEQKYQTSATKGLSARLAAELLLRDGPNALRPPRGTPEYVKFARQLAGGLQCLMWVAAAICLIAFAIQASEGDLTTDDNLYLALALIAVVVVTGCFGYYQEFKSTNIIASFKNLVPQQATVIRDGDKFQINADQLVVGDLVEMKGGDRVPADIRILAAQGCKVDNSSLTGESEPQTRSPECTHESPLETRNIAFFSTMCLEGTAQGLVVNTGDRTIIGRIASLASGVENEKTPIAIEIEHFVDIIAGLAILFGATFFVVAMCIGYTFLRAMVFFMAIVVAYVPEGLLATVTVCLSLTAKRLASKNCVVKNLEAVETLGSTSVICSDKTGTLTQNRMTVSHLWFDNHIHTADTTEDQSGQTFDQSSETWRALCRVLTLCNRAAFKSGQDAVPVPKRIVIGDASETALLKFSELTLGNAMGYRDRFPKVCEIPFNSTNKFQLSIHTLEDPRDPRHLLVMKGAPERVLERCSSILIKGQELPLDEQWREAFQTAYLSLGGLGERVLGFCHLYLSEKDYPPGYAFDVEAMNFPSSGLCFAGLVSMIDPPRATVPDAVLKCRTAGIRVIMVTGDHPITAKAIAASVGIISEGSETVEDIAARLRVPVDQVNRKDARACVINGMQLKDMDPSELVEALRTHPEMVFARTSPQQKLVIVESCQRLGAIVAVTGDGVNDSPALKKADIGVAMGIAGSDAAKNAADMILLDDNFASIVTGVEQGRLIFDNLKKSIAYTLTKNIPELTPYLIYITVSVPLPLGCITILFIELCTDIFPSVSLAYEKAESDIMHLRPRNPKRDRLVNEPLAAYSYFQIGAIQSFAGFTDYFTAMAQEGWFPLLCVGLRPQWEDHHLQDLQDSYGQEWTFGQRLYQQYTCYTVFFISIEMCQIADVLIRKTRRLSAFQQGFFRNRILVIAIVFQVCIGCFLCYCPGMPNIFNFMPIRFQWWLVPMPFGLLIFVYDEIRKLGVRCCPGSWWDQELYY
Chain of H+/K+ ATPase (P18597 whole entry partner): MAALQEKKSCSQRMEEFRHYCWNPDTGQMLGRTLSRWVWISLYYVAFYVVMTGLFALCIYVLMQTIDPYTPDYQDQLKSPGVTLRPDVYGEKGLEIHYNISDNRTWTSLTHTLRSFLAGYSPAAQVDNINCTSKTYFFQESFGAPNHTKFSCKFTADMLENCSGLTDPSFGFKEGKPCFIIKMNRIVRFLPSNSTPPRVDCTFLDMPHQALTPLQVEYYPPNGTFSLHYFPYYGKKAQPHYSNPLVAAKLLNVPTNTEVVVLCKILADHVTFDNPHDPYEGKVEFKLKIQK

Structure (SMILES)	IC50
CN1Cc2nn(Cc3cccc(N4CCOCC4)c3)c(-c3ccccc3F)c2C1 [Example 1, 4-(3-((3-(2-fluorophenyl)-5-methyl-5,6-dihydropyrrolo [3,4-c]pyrazole-2(4H)-yl)methyl)phenyl) morpholine]	410 nM
CN1Cc2nn(Cc3cccc(N4CCCCC4)c3)c(-c3ccccc3F)c2C1 [Example 2, 3-(2-fluorophenyl)-5-methyl-2-(3-(piperidin-1-yl)benzyl)-2,4,5,6-tetrahydropyrrolo[3,4-c]pyrazole]	431 nM
CN1CCN(c2cccc(Cn3nc4c(c3-c3ccccc3F)CN(C)C4)c2)CC1 [Example 4, 3-(2-fluorophenyl)-5-methyl-2-(3-(4-methylpiperazin-1-yl)benzyl)-2,4,5,6-tetrahydro pyrrolo [3,4-c] pyrazole]	580 nM

Next, values leading:

IC50	Structure (SMILES)
1860 nM	CN1Cc2nn(Cc3cccc(N4CCCC4)c3)c(-c3ccccc3F)c2C1 [Example 3, 3-(2-fluorophenyl)-5-methyl-2-(3-(pyrrolidin-1-yl)benzyl)-2,4,5,6-tetrahydropyrrolo[3,4-c]pyrazole]
2580 nM	CN1Cc2nn(Cc3cccc(N4CCC(N5CCCCC5)CC4)c3)c(-c3ccccc3F)c2C1 [Example 5, 2-(3-([1,4′-Bipiperidine]-1′-yl)benzyl)-3-(2-fluorophenyl)-5-methyl-2,4,5,6-tetrahydropyrrolo[3,4-c]pyrazole]
